Assay results: patent US8992897B2, “Skin lightening compositions” (ELC Management LLC, priority 2010, dated 2015)
Where two headings read alike, the source gives them in different places.

Columns and labels:
MITF mRNA = MITF mRNA level by RT-PCR in B16F10 cells; conditions: B16F10 mouse melanoma cells
tyrosinase = target: T1, tyrosinase (Mus musculus, UniProt P11344); assay: Tyrosinase activity of B16F10 cell extracts with L-DOPA as substrate
T1 sequence (P11344 19-533): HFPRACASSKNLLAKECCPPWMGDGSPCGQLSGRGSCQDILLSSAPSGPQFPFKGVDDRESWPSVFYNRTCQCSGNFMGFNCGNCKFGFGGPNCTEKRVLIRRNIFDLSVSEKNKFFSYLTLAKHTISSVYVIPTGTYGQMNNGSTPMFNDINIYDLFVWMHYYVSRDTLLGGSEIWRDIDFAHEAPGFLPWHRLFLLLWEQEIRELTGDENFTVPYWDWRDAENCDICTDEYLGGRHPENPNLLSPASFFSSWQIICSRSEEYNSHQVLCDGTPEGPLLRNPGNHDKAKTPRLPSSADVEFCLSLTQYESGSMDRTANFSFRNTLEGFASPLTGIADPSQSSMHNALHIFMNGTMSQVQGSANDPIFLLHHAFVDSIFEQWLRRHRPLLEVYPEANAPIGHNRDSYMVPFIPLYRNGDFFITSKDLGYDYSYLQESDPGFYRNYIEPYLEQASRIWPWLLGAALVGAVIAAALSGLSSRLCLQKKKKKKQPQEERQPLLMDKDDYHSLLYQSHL

tyrosinase mRNA = assay: Tyrosinase mRNA level by RT-PCR in B16F10 cells; conditions: B16F10 mouse melanoma cells
B16F10 melanoma cells [1] = assay: Melanin content of B16F10 melanoma cells (screening for inhibition of melanogenesis)
Method: B16F10 melanoma cells were incubated for three days with test compounds at various concentrations. The cells were fixed, dried and solubilized, and the melanin content was determined.

mouse tyrosinase = assay: Tyrosinase protein level by Western blot; conditions: Western blots, antibodies specific for mouse tyrosinase
B16F10 melanoma cells [2] = assay: pH change in B16F10 melanoma cells by DAMP accumulation / FITC anti-DNP fluorescence; type: cell-based, mouse
Method: The protocol to detect changes in pH followed that of Cheli, Y. et al. B16F10 melanoma cells were seeded in glass bottom dishes and maintained in DMEM medium with 10% FBS. […] Cells were washed with fresh culture medium and incubated for 20 minutes in the presence of 30 μM DAMP ([3-(2,4-dinitroanilino)3′amino-N-methyldipropylamine], a weak base which accumulates in acidic compartments). Cells were fixed in 3% PFA for 20 minutes at room temperature. The glass bottom dishes were washed with PBS, incubated 10 minutes in NH4Cl//PBS at room temperature and permeabilized in PBS with 0.1% Triton-100 for two minutes on ice. The dishes were then incubated with a green reflecting fluoroscein isothiocyanate (FITC)-labeled rabbit anti-dinitrophenyl (DNP) antibody (1/50 PBS plus 1% BSA) for one hours at 37° C. The intensity of fluorescence indicated the accumulation of DAMP. Increased intensity of the fluorescence can be related to lowered pH. (Cheli, Y., Luciani, F., Khaled, M., Beuret, L., Billie, K., Gounon, Pl, Ortonne, J. P., Bertolotto, C., and Ballotti, R. Alpha-MSH and cyclic-AMP elevating agents control melanosome pH through a PKA-independent mechanism. J. Biol. Chem., 284:18699-18706, 2009).
It has been previously shown that forskolin induces an alkalinization of the melanosome milieu.

human tyrosinase = target: T2, human tyrosinase (Homo sapiens, UniProt P14679); conditions: test tube assay, extracts from human melanocytes
T2 sequence (P14679 19-529): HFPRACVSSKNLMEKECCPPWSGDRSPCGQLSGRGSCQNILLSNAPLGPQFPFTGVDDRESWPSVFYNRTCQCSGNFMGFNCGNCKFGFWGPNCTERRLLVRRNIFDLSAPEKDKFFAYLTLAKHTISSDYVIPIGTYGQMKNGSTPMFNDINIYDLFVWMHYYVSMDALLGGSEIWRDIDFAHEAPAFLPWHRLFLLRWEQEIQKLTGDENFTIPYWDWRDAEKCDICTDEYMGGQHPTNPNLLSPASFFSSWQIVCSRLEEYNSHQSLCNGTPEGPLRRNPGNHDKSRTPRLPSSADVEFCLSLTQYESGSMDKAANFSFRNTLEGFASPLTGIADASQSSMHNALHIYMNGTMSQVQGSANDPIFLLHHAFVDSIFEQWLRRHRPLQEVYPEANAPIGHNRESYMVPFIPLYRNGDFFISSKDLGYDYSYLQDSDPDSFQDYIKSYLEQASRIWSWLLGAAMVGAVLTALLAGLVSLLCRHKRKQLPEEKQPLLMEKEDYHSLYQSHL

cultured melanocytes = assay: Inhibition of melanogenesis in cultured melanocytes
skin = conditions: 4% hydroquinone, another study

5- or 6-methoxy-2-{[(4-methoxy-3,5-dimethylpyridin-2-yl)methyl]sulfinyl}-1H-benzimidazole [omeprazole]
MITF mRNA level (MITF mRNA): does not change
tyrosinase activity of B16F10 cell extracts (tyrosinase): decreases the tyrosinase activity
tyrosinase mRNA level (tyrosinase mRNA): does not change
cytotoxicity (B16F10 melanoma cells [1]; B16F10 melanoma cells): without cytotoxicity
inhibition of melanin synthesis (B16F10 melanoma cells [1]; B16F10 melanoma cells): inhibits melanin synthesis
reducing melanin in the cells (melanin content) (B16F10 melanoma cells [1]; B16F10 melanoma cells incubated three days with test compounds at various concentrations): one of the compounds most potent in reducing melanin
tyrosinase protein level (mouse tyrosinase): decreases tyrosinase protein level
lowering the pH of melanoma cells (in words) (B16F10 melanoma cells [2]; 25 μM and 50 μM, after 4 hours of treatment): effective at lowering the pH
Average fluorescence per cell ± S.D. (B16F10 melanoma cells [2]; 4 hour incubation (first experiment), 50 μM): 145.5 ± 14.5
Average fluorescence per cell ± S.D. (B16F10 melanoma cells [2]; 4 hour incubation (second experiment), 25 μM): 124.3 ± 2.5
Average fluorescence per cell ± S.D. (B16F10 melanoma cells [2]; 4 hour incubation (second experiment), 50 μM): 133.7 ± 13.3
Average fluorescence per cell ± S.D. (B16F10 melanoma cells [2]; 24 hour incubation, 50 μM): 139.3 ± 14.4
Fluorescence intensity / DAMP labeling (in words) (B16F10 melanoma cells [2]; exposure of cells for 24 hours): increased
concentration required to moderately inhibit human tyrosinase activity (human tyrosinase): 250 µg/mL
effective concentration to inhibit melanogenesis (cultured melanocytes): 5 to 50 µg/mL

Oc1ccc(O)cc1 [hydroquinone]
lightening factor (skin; 3 weeks of treatment): 3.2
lightening factor (skin; 4 weeks of treatment): 5.0

Cc1nc2c(OCc3ccccc3)cccn2c1CC#N [SCH-28080, 2-methyl-8-(phenylmethoxy) imidazo (1,2a) pyridine-3-acetonitrile]
inhibition of melanogenesis (B16F10 melanoma cells [1]; cultured B16F10 mouse melanoma cells (routine screening)): equally as efficient as omeprazole

C=C[C@@]1(C)CC(=O)[C@]2(O)[C@@]3(C)[C@@H](O)CCC(C)(C)[C@@H]3[C@H](O)[C@H](OC(C)=O)[C@@]2(C)O1 [Forskolin]
Average fluorescence per cell ± S.D. (B16F10 melanoma cells [2]; 24 hour incubation, 20 μM): 87 ± 15.1
